What was measured:
Assay type in all cases: in vivo
[1] = system: Crabgrass (Digitaria sanguinalis); assay: Pre-Emergent Test, herbicidal effectiveness; settings: pre-emergence, 504 h, 33 micrograms per cm^2, 3 weeks, 0-to-100 scale, read-out: Herbicidal Effectiveness, % Control Pre, C
Method: (§1) An acetone solution of the test compound was prepared by mixing 750 mg of the compound, 220 mg of a nonionic surfactant and 25 ml of acetone. This solution was added to approximately 125 ml of water containing 156 mg of surfactant.
(§2) Seeds of the test vegetation were planted in a pot of soil and the test solution was sprayed uniformly onto the soil surface at a dose of 33 micrograms/cm^2. The pot was watered and placed in a greenhouse. […] At the end of this period, the herbicidal effectiveness of the compound was rated based on the physiological observations. A 0-to-100 scale was used, 0 representing no phytotoxicity, 100 representing complete kill.

[2] = system: Lambsquarter (Chenopodium album); assay: Pre-Emergent Test, herbicidal effectiveness; settings: pre-emergence, 504 h, 33 micrograms per cm^2, 3 weeks, 0-to-100 scale, read-out: Herbicidal Effectiveness, % Control Pre, L
Method: as §1, §2

[3] = system: Mustard (Brassica arvensis); assay: Pre-Emergent Test, herbicidal effectiveness; settings: pre-emergence, 504 h, 33 micrograms per cm^2, 3 weeks, 0-to-100 scale
Method: as §1, §2

[4] = system: Pigweed (Amaranthus retroflexus); assay: Pre-Emergent Test, herbicidal effectiveness; settings: pre-emergence, 504 h, 33 micrograms per cm^2, 3 weeks, 0-to-100 scale, read-out: Herbicidal Effectiveness, % Control Pre, P
Method: as §1, §2

Watergrass (Echinochloa) [5] = assay: Pre-Emergent Test, herbicidal effectiveness; settings: pre-emergence, 504 h, 33 micrograms per cm^2, 3 weeks, 0-to-100 scale, read-out: Herbicidal Effectiveness, % Control Pre, W
Method: as §1, §2

Wild Oats (Avena fatua) [6] = assay: Pre-Emergent Test, herbicidal effectiveness; settings: pre-emergence, 504 h, 33 micrograms per cm^2, 3 weeks, 0-to-100 scale, read-out: Herbicidal Effectiveness, % Control Pre, O
Method: as §1, §2

[7] = system: Crabgrass (Digitaria sanguinalis); assay: Post-Emergent Test, herbicidal effectiveness; settings: post-emergence, 504 h, 33 micrograms per cm^2, 3 weeks, 0-to-100 scale, read-out: Herbicidal Effectiveness, % Control Post, C
[8] = system: Lambsquarter (Chenopodium album); assay: Post-Emergent Test, herbicidal effectiveness; settings: post-emergence, 504 h, 33 micrograms per cm^2, 3 weeks, 0-to-100 scale, read-out: Herbicidal Effectiveness, % Control Post, L
[9] = system: Mustard (Brassica arvensis); assay: Post-Emergent Test, herbicidal effectiveness; settings: post-emergence, 504 h, 33 micrograms per cm^2, 3 weeks, 0-to-100 scale
[10] = system: Pigweed (Amaranthus retroflexus); assay: Post-Emergent Test, herbicidal effectiveness; settings: post-emergence, 504 h, 33 micrograms per cm^2, 3 weeks, 0-to-100 scale, read-out: Herbicidal Effectiveness, % Control Post, P
Watergrass (Echinochloa) [11] = assay: Post-Emergent Test, herbicidal effectiveness; settings: post-emergence, 504 h, 33 micrograms per cm^2, 3 weeks, 0-to-100 scale, read-out: Herbicidal Effectiveness, % Control Post, W
Wild Oats (Avena fatua) [12] = assay: Post-Emergent Test, herbicidal effectiveness; settings: post-emergence, 504 h, 33 micrograms per cm^2, 3 weeks, 0-to-100 scale, read-out: Herbicidal Effectiveness, % Control Post, O

Row | SMILES | pest or weed control at 33 µg/cm2 [1] [%] | pest or weed control at 33 µg/cm2 [2] [%] | pest or weed control at 33 µg/cm2 [3] [%] | pest or weed control at 33 µg/cm2 [4] [%] | pest or weed control at 33 µg/cm2 (Watergrass (Echinochloa) [5]) [%] | pest or weed control at 33 µg/cm2 (Wild Oats (Avena fatua) [6]) [%] | pest or weed control at 5000 µg/mL, 33 µg/cm2 [7] [%] | pest or weed control at 5000 µg/mL, 33 µg/cm2 [8] [%] | pest or weed control at 5000 µg/mL, 33 µg/cm2 [9] [%] | pest or weed control at 5000 µg/mL, 33 µg/cm2 [10] [%] | pest or weed control at 5000 µg/mL, 33 µg/cm2 (Watergrass (Echinochloa) [11]) [%] | pest or weed control at 5000 µg/mL, 33 µg/cm2 (Wild Oats (Avena fatua) [12]) [%]
1 | CSc1nnc(CNc2c(C)cccc2C)n1C [Compound 14A] | 0 | 0 | 0 | 0 | 0 | 0 | 0 | 0 | 0 | 0 | 0 | 0
2 | CSc1nnc(CN(C(=O)CCl)c2c(C)cccc2C)n1C [Compound 14B] | 90 | 0 | 0 | 0 | 100 | 10 | 0 | 0 | 0 | 0 | 0 | 0
3 | CCc1nnc(CNc2c(C)cccc2CC)[nH]1 [Compound 15A] | 0 | 0 | 0 | 0 | 0 | 0 | 0 | 0 | 0 | 0 | 0 | 0
4 | CCc1nnc(CN(C(=O)CCl)c2c(C)cccc2CC)[nH]1 [Compound 15B] | 100 | 100 | 100 | 100 | 100 | 100 | 75 | 35 | 35 | 30 | 80 | 55
5 | CCc1cccc(C)c1NCc1nnc(C(C)C)[nH]1 [Compound 16A] | 0 | 0 | 0 | 0 | 0 | 0 | 0 | 0 | 0 | 0 | 0 | 0
6 | CCc1cccc(C)c1N(Cc1nnc(C(C)C)[nH]1)C(=O)CCl [Compound 16B] | 100 | 100 | 95 | 95 | 100 | 100 | 70 | 35 | 40 | 40 | 75 | 70
7 | CCc1cccc(C)c1NCc1nnc[nH]1 [Compound 17A] | 0 | 0 | 0 | 0 | 0 | 0 | 0 | 0 | 0 | 0 | 0 | 0

— patent US4243408A, “Herbicidal N-triazolylmethyl-substituted alpha-haloacetanilide” (Chevron Research Company, priority 1978, dated 1981)
